The text below walks through data of ChEMBL document CHEMBL1143891, “Synthesis of beta- and gamma-oxa isosteres of fosmidomycin and FR900098 as antimalarial candidates” (Bioorg Med Chem, 2008).

In general, IC50 refers to the midpoint of a concentration-inhibition curve.

Assay [1] is described as follows: Inhibition of Escherichia coli DXR.
The next assay concerns Plasmodium falciparum. Briefly: Antimalarial activity against Plasmodium falciparum 3D7 in infected human erythrocytes after 48 hrs. In kind it is functional, organism-based. The settings on record: 3D7, 48 h.

For `O=C(COCP(=O)(O)O)NO`, in assay [1], the IC50 is above 3 µM.

Turning to `CN(O)C(=O)CCCP(=O)(O)O`, the results for the IC50 (in assay [1]; in the assay with Plasmodium falciparum) were 0.097 µM and 0.98 µM, respectively.

Consider `CC(=O)N(O)COCP(=O)(O)O`, for which the concentration for half-maximal inhibition (IC50) in assay [1] came to 0.087 µM; with Plasmodium falciparum, 0.36 µM.

On to `CC(=O)N(O)CCCP(=O)(OCOC(=O)C(C)(C)C)OCOC(=O)C(C)(C)C`, for which the 50% inhibitory concentration (IC50) in assay [1] was above 30 µM; in the assay with Plasmodium falciparum, 0.099 µM.

As to `CN(O)C(=O)COCP(=O)(O)O`, the figures for the IC50 (in assay [1]; in the assay with Plasmodium falciparum) were 0.072 µM and 0.24 µM, respectively.

For the compound `O=CN(O)COCP(=O)(O)O`, the values for the IC50 (in assay [1]; with Plasmodium falciparum) were 1.11 µM and 4.9 µM, respectively.

Consider `CN(O)C(=O)OCCP(=O)(O)O`, for which, in assay [1], 3 µM corresponded to half-maximal inhibition (IC50).

`O=C(NO)OCCP(=O)(O)O` registered an IC50 in assay [1] above 3 µM.

`CN(O)C(=O)COCP(=O)(OCOC(=O)C(C)(C)C)OCOC(=O)C(C)(C)C` [BIS(PIVALOYLOXYMETHYL)ESTER]: the 50% inhibitory concentration (IC50) in assay [1] was above 30 µM; in the assay on Plasmodium falciparum, 0.051 µM.

As for `O=CN(O)CCCP(=O)(O)O` [FOSMIDOMYCIN], the IC50 in assay [1] is 0.054 µM; with Plasmodium falciparum, 1.2 µM.

For `CC(=O)N(O)CCCP(=O)(O)O` [FR-900098], the half-inhibitory concentration (IC50) in assay [1] turned out to be 0.062 µM; with Plasmodium falciparum it was 0.43 µM.
